Entries after “also recorded” stand apart in the source; their conditions may differ.
Tests used:
[1] = test system: VU-SCC-120; assay: ATM inhibitor treatment, CellTiter-Blue cell viability; assay type: cell-based, human
Method: (§1) Both ciOKC and VU-SCC-120 cells were subjected to a concentration range of 40-0.075 μM ATM inhibitor CP466722 (Axon Medchem, Groningen, The Netherlands). After 72 hours cell viability was assessed with the CellTiter-Blue® cell viability assay.

[2] = test system: ciOKC cells; assay: as above; assay type: cell-based, human; conditions: 72 hours
Method: as §1

[3] = test system: ATM expression; assay: Knockdown of endogenous ATM expression by shRNA constructs, qRT-PCR in ciOKC; assay type: cell-based, human; conditions: ciOKC transduced with shRNA; qRT-PCR vs control construct
Method: (§2) Viral supernatants were produced by co-transfection of HEK239T cells using FuGENE® 6 (Roche diagnostics, Woerden, The Netherlands) with the pLKO.1 short-hairpin vector together with the packaging and envelop vectors. Both ciOKC and VU-SCC-120 (HNSCC cell line) were transduced with lentiviruses at two following days for four hours in the presence of 3 μg/ml polybrene (Sigma-Aldrich, Zwijndrecht, The Netherlands). In total 48 hours after transduction, cells were subjected to puromycin selection. For ciOKC this was two days 5 μg/ml and subsequently 5 days of 10 μg/ml puromycin (Sigma-Aldrich). For VU-SCC-120 the selection was performed with 1 μg/ml for seven days.
Total RNA was isolated using the mirVana™ miRNA isolation kit (Ambion, Nieuwerkerk aan den IJssel, The Netherlands) according to the instructions of the manufacturer with as only modification that the columns were eluted by 2×25 μl elution buffer. Expression of hsa-miR-181a, hsa-miR-323, hsa-miR-326, hsa-miR-342, hsa-miR-345 and hsa-miR-371 was analyzed by Taqman® microRNA assays following the instructions of the manufacturer (Applied biosystems, Nieuwerkerk aan den IJssel, The Netherlands). ATM expression was analysed by Taqman® gene expression assay. […] Quantitative RT-PCR reactions without reverse transcriptase were carried out in parallel for each RNA sample to exclude signal by contaminating DNA. […]

[4] = test system: tumour cell lines; assay: Synthetic mimic/siRNA transfection, CellTiter-Blue cell viability, panel of cell lines; assay type: cell-based, human; conditions: 30 nM mimic, 96 hours after transfection
Method: (§3) Cells were plated and transfected with miRIDIAN microRNA mimics miR-181a, miR-181a*, miR-181a-2, miR-323-5p, miR-323-3p, miR-326-5p, miR-345-5p, miR-342-3p, miR-342-5p, miR-371-3p, miR-371-5p and non-targeting Mimic Negative Control#1 (Dharmacon, Thermo Fisher Scientific, Lafayette, Colo.) in 96-well flat bottom plates (Greiner Bio-One B.V., Alphen a/d Rijn, The Netherlands). MicroRNA mimic for miR-3157 was obtained from Ambion. The non-targeting siCONTROL#1, and the siRNA PLK1 SMARTpool (Dharmacon) were used as negative and positive controls, respectively. Cells were transfected with […] mimic/siRNA and cell line dependent amounts of DharmaFECT1 (Dharmacon) (Table 6). Cell viability was determined, 96 hours after transfection, by adding CellTiter-Blue reagent (Promega, Leiden, The Netherlands). After two hours of incubation at 37° C. fluorescence was analyzed at 540 nm excitation and 590 nm emission wavelength using an Infinite F200 microplate reader (Tecan, Giessen, The Netherlands).
(§4) The cell proliferation has been assessed 96 hours after the transfection of nucleic acids using Dharmafect and the read-out based on the Alamar Blue (resazurin) fluorescent dye for the assessment of mammalian cell cytotoxicity.

[5] = test system: precursor line M3; assay: Synthetic mimic transfection, cell viability; assay type: cell-based, human; conditions: 30 nM mimic, 96 hours after transfection
Method: as §3, §4

[6] = test system: activated BRAF pathway; conditions: in melanoma or colorectal cancer cells; reported; cited from earlier work
[7] = test system: VU-SCC-059; assay: miRNA-3157 mimic transfection, cell viability; assay type: cell-based, human; conditions: 30 nM, 96 hours
Method: as §3, §4

[8] = test system: VU-SCC-120; assay: miRNA-3157 mimic transfection, cell viability; assay type: cell-based, human; conditions: 30 nM, 96 hours
Method: as §3, §4

[9] = test system: UM-SCC-11B; assay: miRNA-3157 mimic transfection, cell viability; assay type: cell-based, human; conditions: 30 nM, 96 hours
Method: as §3, §4

[10] = test system: normal keratinocytes; assay: miRNA-3157 mimic transfection, cell viability; assay type: cell-based, human; conditions: 30 nM, 96 hours
Method: as §3
Normal oral keratinocytes were isolated and cultured as previously described (van Zeeburg et al., 2010). […]
as §4

[11] = test system: melanoma or colorectal cancer cells; conditions: Poell et al. 2012; cited from earlier work
[12] = test system: VU-SCC-120; assay: Lentiviral shRNA ATM knockdown, cell survival; assay type: cell-based, human; conditions: VU-SCC-120 vs ciOKC
Text: Lentiviral vectors with short-hairpin RNA sequences targeting ATM were obtained from the TRC short-hairpin library (Sigma-Aldrich, Zwijndrecht, the Netherlands) that is available at VU university medical center. Each shRNA sequence is complementary to an unique part of the ATM mRNA sequence.
as §2
Therefore we introduced five lentiviral shRNA constructs designed to specifically knockdown ATM expression. Each shRNA sequence was complementary to an unique part of the ATM mRNA sequence.

Compound: COc1cc2ncnc(-n3nc(-c4ccccn4)nc3N)c2cc1OC [CP466722]
- IC50 ([1]; VU-SCC-120, 72 hours): 2.6 µM
- change of IC50 ciOKC to VU-SCC-120 ([1]; p-value <0.05 by T-testing): 3 fold
- IC50 [2]: 8.2 µM

Compound: ATM shRNA number 5: lentiviral pLKO.1 short-hairpin construct targeting ATM from the TRC library; probably SEQ ID NO: 359 (CCGGGCCGTCAACTAGAACATGATACTCGAGTATCATGTTCTAGTTGACGGCTTTTTG)
- downregulation of ATM expression levels [3]: no significant downregulation

Compound: miRNA-3157: microRNA mimic for miR-3157 from Ambion; mature UUCAGCCAGGCUAGUGCAGUCU (SEQ ID NO: 364) (listed as RNA, chemistry not given here)
- cell viability in tumour cell lines [4]: lethal for three out of four tumor cell lines
- cell viability in precursor line M3 [5]: not lethal
- inhibition of activated BRAF pathway [6]: selective inhibitor of activated BRAF pathway
- cell viability [7]: inhibits cell viability
- cell viability [8]: inhibits cell viability
- cell viability [9]: inhibits cell viability
- cell viability [10]: not lethal; also recorded: does not inhibit cell viability
- lethality to melanoma or colorectal cancer cells [11]: lethal

Compound: mimic 323-5p: miRIDIAN microRNA mimic (Dharmacon); AGGUGGUCCGUGGCGCGUUCGC (SEQ ID NO: 22) (listed as RNA, chemistry not given here)
- cell viability in tumour cell lines [4]: cause a decrease in all tumour cell lines

Compound: shRNA ATM1: lentiviral pLKO.1 short-hairpin construct targeting ATM from the TRC library; probably SEQ ID NO: 355 (CCGGCCTGCCAACATACTTTAAGTACTCGAGTACTTAAAGTATGTTGGCAGGTTTTTG)
- toxicity in the tumour cell line as compared to the ciOKC cells (therapeutic window) [12]: at least 8 times

— patent US10174314B2, “MiRNA for treating head and neck cancer” (INTERNA TECHNOLOGIES B.V., priority 2011, dated 2019)
